Results from ChEMBL document CHEMBL3638993, “Dihydrofolate reductase inhibitors” (2014).

Experiments:
Dihydrofolate reductase [1] = target: T1, Dihydrofolate reductase (Homo sapiens, UniProt P00374); assay: (§1) Inhibition Assay: Antibacterial activity as measured by the minimal inhibitory concentrations (MIC) and minimal bactericidal concentrations of compounds are well known (see., e.g., National Committee for Clinical Laboratory Standards 2000 Performance standards for antimicrobial disk susceptibility tests: approved standard, 7th ed. M2-A7, vol. 20, no. 1, Committee for Clinical Laboratory Standards, Wayne, Pa.).
T1 sequence (P00374 whole entry): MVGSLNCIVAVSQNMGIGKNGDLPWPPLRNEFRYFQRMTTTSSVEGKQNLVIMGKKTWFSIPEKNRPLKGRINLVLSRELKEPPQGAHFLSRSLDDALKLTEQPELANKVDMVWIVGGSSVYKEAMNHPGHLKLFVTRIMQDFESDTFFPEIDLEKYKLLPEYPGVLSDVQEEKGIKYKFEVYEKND

Dihydrofolate reductase [2] = target: Dihydrofolate reductase (Staphylococcus aureus, UniProt P0A017); assay: as §1
Chain of Dihydrofolate reductase (Staphylococcus aureus, UniProt P0A017) (P0A017 whole entry): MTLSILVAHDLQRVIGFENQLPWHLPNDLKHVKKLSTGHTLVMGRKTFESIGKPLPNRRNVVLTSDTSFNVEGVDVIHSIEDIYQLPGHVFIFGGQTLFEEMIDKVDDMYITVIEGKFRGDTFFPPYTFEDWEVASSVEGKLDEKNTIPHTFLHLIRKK

**Q.** For Cc1c(C(=O)OC(C)(C)C)nc(-c2cccs2)n1-c1ccc2c(N)nc(N)nc2c1, which Ki (Dihydrofolate reductase [1]) is on record?
**A.** 1910 nM

**Q.** And the Ki (Dihydrofolate reductase [2])?
**A.** 0.2 nM
